Experimental data as given in patent publication US20060178307A1, “Modulation of NMDA receptor currents via orexin receptor and/or CRF receptor” (priority 2005, published 2006).
“Also recorded” adds a separate entry of the source. Where no end group is shown, it is not given here.

Key:
locomotor activity = test: Locomotor sensitization to cocaine, i.p. OXR1 antagonist, open field; type: in vivo, Sprague-Dawley rats
Experimental: To determine if orexin signaling plays a role in behavioral sensitization to cocaine, either the OXR1 antagonist SB 334867 (10 mg/kg, i.p.) or vehicle was injected 15 min prior to injecting cocaine (15 mg/kg, i.p) or saline (0.9%), and then the rats were placed in an open field chamber to measure locomotor activity for 1 hour each day for 5 days.
Therefore, to determine if expression of cocaine sensitization requires release of orexin acting at the OXR1 receptor, the OXR1 antagonist SB 334867 (10 mg/kg) was injected with cocaine (15 mg/kg) on day 6 into either cocaine-sensitized or saline-treated rats.
Male Sprague-Dawley Rats (P21-P30; Charles River, N.C.) were singly housed with food and water available ad libitum. A 12 hr light/dark cycle was used, with the lights on at 7:00 A.M. All cocaine injections and behavioral testing were performed during the light cycle for consecutive days. The four treatment groups consisted of rats given 5 daily i.p. injections of SB 334867 (10 mg/kg) 15 min preceding i.p. injection of cocaine (15 mg/kg) or saline (0.9% NaCl), or i.p. injections of vehicle (10% DMSO and 25% β-hydroxy cyclodextrin in saline) 15 min preceding i.p. injection of cocaine or saline. All animals were habituated to the photocell boxes (Med Associates, St. Albans, Vt.) for 2 hours prior to the start of the experiment. All animals were further habituated to the photocell boxes for 30 min prior to 60 min testing session. Locomotor activity was measured in 17″×17″ chambers lined with three 16-beam I/R arrays. A 50 ms scanning rate was used for measurement of beams broken. Distance traveled was measured using Open Field Activity Software (Med Associates, Inc) and analyzed for estimates of locomotion based on the movement of a given distance and resting delay (movement in a given period of time).

[1] = system: NMDAR-mediated EPSCs in VTA dopamine neurons; test: Evoked NMDAR-mediated EPSCs, whole-cell voltage clamp at +40 mV, VTA neurons in midbrain slices; type: cell-based, rat; settings: for effect on orexin A-mediated potentiation of NMDAR EPSCs: antagonist 1 μM, n=8 (FIG. 1C)
Experimental: (§1) Excitatory postsynaptic currents (EPSCs) were recorded from VTA neurons in rat midbrain slices. EPSCs were evoked while holding neurons in voltage clamp at +40 mV. Measurements were taken 20 ms after the stimulus artifact, a time point at which the glutamatergic EPSC is mediated purely by NMDARs.
The patch pipette was loaded with the PLC inhibitor, U-73122 (1 μM, FIG. 2A, C, n=6) or the PKC inhibitor, chelerythrin (1 μM, FIG. 1A, B, n=6). […] Next, the protein kinase A inhibitor, PKI (20 μM, FIG. 2A, F, n=8) or Rp-cAMPs, a blocker of cAMP (100 μM, FIG. 2A, E, n=5) was added to the patch pipette.
Activation of PKC is implicated in NMDAR-dependent long-term potentiation (Malinow et al., 1989) and it modulates NMDAR trafficking to the membrane (Lan et al., 2001; Scott et al., 2001; Fong et al., 2002). NMDARs can translocate from intracellular or extrasynaptic pools to synaptic sites (Lan et al., 2001; Tovar and Westbrook, 2002). […] In a separate group of slices, orexin A (100 nM, n=6) was applied for 5 min during the washout period.
(§2) All of the electrophysiological recordings were performed in rats ranging from P21 to P30. Briefly, rats were anesthetized with halothane and sacrificed. Horizontal sections of the VTA ([…]) were prepared with a vibratome (Leica, Nussloch, Germany). Slices were placed in a holding chamber and allowed to recover for at least 1 hour before being placed in the recording chamber and superfused with bicarbonate-buffered solution (ACSF) saturated with 95% O2/5% CO2 and containing (in mM): 119 NaCl, 1.6 KCl, 1.0 NaH2PO4, 1.3 MgCl2, 2.5 CaCl2, 26.2 NaHCO3 and 11 glucose (at 32-34° C.). Picrotoxin (100 μM) was added to block GABAA receptor-mediated inhibitory postsynaptic currents. Cells were visualized using infrared differential interference contrast video microscopy. Whole-cell voltage clamp recordings were made using an Axopatch 1D amplifier (Axon Instruments, Union City, Calif.). Electrodes (2.8-4.0 MΩ) contained (in mM): 120 Cesium Methansulfonate, 20 HEPES, 0.4 EGTA, 2.8 NaCl, 5 TEA-Cl, 2.5 MgATP, and 0.25 NaGTP, pH 7.2-7.3 (270-285 mOsm). Series resistance (10-40 MΩ) and input resistance were monitored on-line with a 4-mV depolarizing step (50 ms) given just after every afferent stimulus. Dopaminergic VTA neurons were identified by the presence of a large Ih current (Lacey et al., 1990; Johnson and North, 1992) and, in some cases, tyrosine hydroxylase labeling. A bipolar stimulating electrode was placed 100-300 μm rostral to the recording electrode and was used to stimulate excitatory afferents at 0.1 Hz. Neurons were voltage-clamped at −70 mV and +40 mV to record AMPAR- and NMDAR-mediated EPSCs.

[2] = system: AMPAR-mediated EPSCs in VTA dopamine neurons; test: Evoked AMPAR-mediated EPSCs recorded at −70 mV, VTA slices; type: cell-based, rat; settings: orexin A 100 nM
Experimental: as §1
as §2, with “Electrodes (2.8-4.0 MΩ) contained (in mM): 120 Cesium Methansulfonate, 20 HEPES, 0.4 EGTA, 2.8 NaCl, 5 TEA-Cl, 2.5 MgATP, and 0.25 NaGTP, pH 7.2-7.3 (270-285 mOsm).” left out, “Dopaminergic VTA neurons were identified by the presence of a large Ih current (Lacey et al., 1990; Johnson and North, 1992) and, in some cases, tyrosine hydroxylase labeling. A bipolar stimulating electrode was placed 100-300 μm rostral to the recording electrode and was used to stimulate excitatory afferents at 0.1 Hz. Neurons were voltage-clamped at −70 mV and +40 mV to record AMPAR- and NMDAR-mediated EPSCs.” left out

NMDA-induced current = test: Holding current change on bath-applied NMDA; type: cell-based, rat; settings: NMDA 50 μM 30 sec
Experimental: As a final test to determine at what time point after orexin treatment NMDARs were altered, NMDA (50 μM, 30 sec) was bath-applied, and the change in holding current was recorded. There was a significant increase in NMDA-induced current 15 min after orexin A (100 nM) application (orexin A: 344±27 pA, n=7; control: 245±43, n=9, p<0.05, FIG. 7H), but not after 3-4 hours (orexin A: 305±59, n=6; p>0.05, FIG. 7I).

[3] = orexin A 100 nM in the presence of ifenprodil 3 μM, n=6

## Cc1nc2ccc(NC(=O)Nc3ccnc4cccnc34)cc2o1.Cl [SB 334867, 1-(2-methylbenzoxazol-6-yl)-3-[1,5]naphthyridin-4-yl urea hydrochloride]
Locomotor activity; 10 mg/kg i.p. with saline, n=13
  baseline locomotor activity: did not reduce
Locomotor activity; 10 mg/kg i.p., 5 days
  development of sensitization to cocaine: significantly blocked
Locomotor activity; 10 mg/kg injected with cocaine on day 6, n=7 in each group
  locomotor activity on day 6 (expression of cocaine sensitization): not significantly reduced
Locomotor activity; SB 334867 10 mg/kg i.p. 15 min prior to cocaine 15 mg/kg i.p.
  distance traveled on day 5: 8504±2564 cm
Locomotor activity; cocaine-treated rats given SB334867 10 mg/kg, n=11
  locomotor activity on day 1: 3579±1079 cm
[1]; hydrochloride
  effect on orexin A-mediated potentiation of NMDAR EPSCs: significantly inhibited
[1]; listed as SB 334857, hydrochloride
  effect on orexin A-mediated potentiation of NMDAR EPSCs: blocked

## orexin A: neuropeptide synthesized in neurons of the LH; orexin receptor agonist selective for the OXR1 receptor (QPLPDCCRQKTCSCRLYELLHGAGNHAAGILTL; ends and bridges not checked; cysteine pairing not given here; UniProt O43612 34-66, looked up)
[2]; n=8
  change of AMPAR-mediated EPSCs: not changed
[2]; n=8, listed as Orexin A
  change of AMPAR-mediated EPSCs: does not increase
NMDA-induced current; 3-4 hours after orexin A, n=6
  NMDA-induced current: 305±59 pA
NMDA-induced current; 15 min after orexin A 100 nM, n=7
  NMDA-induced current: 344±27 pA
[1]; 2 TH-negative neurons
  response of neurons that did not express TH: neither responded
[1]; 5 min co-application of orexin A 1 nM with CRF 10 nM, n=7
  NMDAR eEPSCs potentiated to a maximum of: 123±12%
[1]; NR2A/C (NVP-AAM077 0.4 μM) and NR2B (ifenprodil 3 μM) inhibitors co-applied, n=6
  NMDAR EPSC before orexin A: 32±5%
[1]; biocytin-filled, tyrosine hydroxylase positive neurons
  TH-containing neurons with potentiated NMDAR responses: 7/8
[1]; orexin A 1 nM (FIG. 1B), n=6
  potentiation of NMDAR-mediated EPSCs: 5±1%
[1]; orexin A 1 nM (FIG. 14A), n=6
  potentiation of NMDARs: 5.7±1.6%
[1]; orexin A 10 nM (FIG. 1B), n=6
  potentiation of NMDAR-mediated EPSCs: 18±3%
[1]; orexin A 100 nM 5 min during washout of MK-801 10 μM, n=6
  maximum current after MK-801 washout: 40±17%
[1]; orexin A 100 nM (FIG. 1B), n=6
  potentiation of NMDAR-mediated EPSCs: 42±5%
[1]; orexin A 100 nM after NVP-AAM077 0.4 μM and ifenprodil 3 μM co-application
  orexin A potentiation of NMDAR EPSCs: largely inhibited; also recorded: blocked
[1]; orexin A 100 nM applied for 30 min
  duration of potentiation after washout: > 40 min
[1]; orexin A 100 nM applied for 30 min, n=6
  potentiation of NMDAR EPSCs: 74±16%
[1]; orexin A 100 nM bath application 5 min (FIG. 1A), n=12
  potentiation of NMDAR-mediated EPSCs: 49±9%
[1]; orexin A 100 nM in the presence of NVP-AAM077 0.4 μM, n=7
  maximum potentiation of NMDAR EPSCs: 20±6%
[1]; orexin A 100 nM in the presence of NVP-AAM077, ifenprodil and PPDA
  effect on remaining current: did not alter
[1]; [3]
  maximum amplitude, of baseline EPSCs: 107±16%
  potentiation of NMDAR-mediated EPSCs: 36%
[1]; orexin A 100 nM with NVP-AAM077 0.4 μM and ifenprodil 3 μM co-applied, n=6
  NMDAR EPSC after orexin A: 45±12%
[1]; orexin A 100 nM, 5 min
  neurons with potentiation greater than 10% / neurons recorded: 10/12
[1]; orexin A 5 min during washout of MK-801 20 μM + NMDA 500 μM, n=6
  maximum current after MK-801 and NMDA washout: 20±2%
[1]; orexin A in the presence of Zn2+ (300 nM), n=5
  maximum potentiation of NMDARs: 14±4%
